Measurements reported in patent US20120083464A1, “NEUROPROTECTIVE PROPERTIES OF 5'-METHYLTHIOADENOSINE” (priority 2009, published 2012).
Entries after “also recorded” stand apart in the source; their conditions may differ.

What was measured:
[1] = test system: mixed cultures of neurons and astrocytes from the cerebral cortex; assay: Cell toxicity and viability assays (calcein-AM, LDH) in neuron-astrocyte co-cultures; assay type: cell-based; conditions: MTA 10 μM-1 mM for 24 hours
Excerpt: Primary neuron cultures were obtained from the cortical lobes of E18 Sprague-Dawley rat embryos according to previously described procedures (Cheung et al., 1998, Neuropharmacology 37:1419-1429). The cells were resuspended in B27 Neurobasal medium plus 10% FBS and then seeded in 24-well plates at 1-2×10^5 cells per well onto a monolayer of astrocytes which were previously prepared as described earlier (Vallejo-Illarramendi et al., 2005, Glia 50:276-279). One day later, the medium was replaced by B27-supplemented Neurobasal medium and 10% fetal bovine serum, and maintained at 37° C. and 5% CO2. Cultures were used 8-9 days after plating. Cultured neurons and astrocytes were identified using antibodies to microtubule associated protein-2 and glial fibrillary acidic protein, respectively.
Cell death and cell viability in neuron-astrocyte co-cultures was assayed after 24 h of exposure to MTA (10 μM to 1 mM) using lactate dehydrogenase and calcein-AM assays respectively followed by fluorimetry measurements (Synergy-HT). The results are expressed as percentage of viable cells or LDH release versus controls, as the mean±SEM of at least four independent experiments performed in triplicate. […]

IL-1β release = assay: LPS neuroinflammation model in cerebellar organotypic cultures: IL1-beta ELISA; assay type: cell-based, C57/B16 wild type mice; conditions: 192 μM MTA pre-treatment, 15 μg/ml LPS, 3 hrs
Excerpt: Organotypic cultures model of neuroinflammation is based on previous observations in which systemic injections of lipopolysaccharide (LPS) in mice spinal cord induce inflammation, demyelinization and Wallerian degeneration. In mice cerebellar organotypic cultures, LPS induces microglia activation with consequent demyelination and axonal damage. In particular, LPS induces TNF-alpha, IL1-beta release, axonal swelling and end bulbs due to axonal transport block, and a decrease of axonal density. Organotypic cultures represent the best model to represent in vivo mechanisms since they maintain cell-cell interaction and organotypic structure of brain region studied. In this way, this in vitro neuroinflammation model reproduces the microglia activation, demyelinization and axonal damage phenomena observed in MS.
Cerebellar organotypic cultures which were pre-treated for half hour with 192 μM of MTA and 15 μg/ml of LPS have been used to generate neuroinflammation model.
2. Data analysis: Western blot, immunofluorescence and ELISA analysis were performed using conventional techniques.

[2] = test system: dopaminergic neurons (TH+ cells) in the substantia nigra; assay: MPTP mice model of Parkinson disease, TH immunohistochemistry; assay type: in vivo, C57B1 mice
Method: Male C57B1 mice, with a body ranging in weight from 23 to 31 g were used in this study. MPTP (Sigma) dissolved in 0.9% NaCl was injected intraperitonealy at a dose of 30 mg/kg for 5 days. MTA was dissolved in purified water with 2% of DMSO at a final concentration of 6 mg/ml and was injected intraperitonealy at a dose of […] or 192 μmol/Kg. The first day of the experiment MTA was injected 24 hours before the MPTP injection and during the following four days administration of MTA was 1 hour before the administration of MPTP. Mice were divided in four groups: (1) MPTP (n=6); (2) MPTP plus 96 μmol/Kg MTA (n=6); (3) MPTP plus 192 μmol/Kg MTA (n=9) and (4) Control group (n=2).
At the end of the experiment, animals were anesthetized with an overdose of 10% chloral hydrate in distilled water and then transcardially perfused with saline Ringer's solution followed by 100 ml of a cold fixative solution containing 4% paraformaldehyde and 0.4% glutaraldehyde in 0.125 M PB, pH 7.4. After perfusion, the skull was opened and the brain removed was post-fixed overnight at 4° C. in the same fixative solution and next stored in a cryoprotective solution containing 20% glycerine and 2% dimethylsulphoxide in 0.125 M PB, pH 7.4. Frozen coronal microtome sections (50 μm-thick) were obtained and collected in 0.125 M PB, pH 7.4, in 6 series of adjacent sections. Sections were stored at −80° C. until further processing.
With a random start, every third sections through the entire SN were sampled. The sections were processed free-floating. Endogenous peroxidase activity was removed by incubating the sections in methanol with 1.25% H2O2 for 40 min. […] Histological quantification was done using the CAST system from Olympus using the BX50 microscope and following the methods described by Oorschot (J Comp Neurol 366:580-599, 1996). […] Neurons were counted using the optic dissector every 3 sections at 150 μm distance and at ×400. […]

RN22 cells = assay: Hydrogen peroxide stress in RN22 cells, MTT cell viability; assay type: cell-based, rat; conditions: hydrogen peroxide 100 μM, twenty-four hours; MTA 25 μM-3 mM
Method: RN22 cells were maintained at 37° C. in DMEM medium supplemented with 10% of fetal bovine serum and penicillin/streptomycine. The assays against stress with copper sulphate were conducted using 24-well plates in DMEM medium without serum. After allowing cell adherence for three days, NGF (100 ng/ml) or MTA was added to different concentrations half an hour before the copper sulphate (150 μM). After twenty-four hours, cell viability was quantified by MTT assay and ROS production was quantified by fluorescence. Assays against stress with hydrogen peroxide were conducted in the same way as the foregoing, using 100 μM hydrogen peroxide as a stress-producing agent.
We determined the quantity of MTT (Sigma) that is reduced to insoluble formazan. After separating the medium, the water-insoluble formazan is solubilised in DMSO and the dissolved material is measured in a spectrophotometer at 570 nm.

## CSC[C@H]1O[C@@H](n2cnc3c(N)ncnc32)[C@H](O)[C@@H]1O [MTA, 5′-methylthioadenosine]
[1]
  astrocyte resistance and viability to MTA: resistant and viable
[1]; neurons in co-culture
  toxicity (cell viability by calcein fluorescence; cell death by LDH release): very low; also recorded: not toxic
IL-1β release
  IL-1β release (ELISA): decreases; also recorded: minor quantity
[2]; MPTP 30 mg/kg for 5 days plus MTA 96 μM/day (so in the source)
  reduction in the number of TH (dopaminergic) neurons compared to controls: 10%
[2]; MPTP plus MTA 96 μM/day (so in the source)
  higher number of dopaminergic neurons than MPTP treated animals: 30%
[2]; MPTP plus MTA (96 μM as printed)
  number of TH neurons versus MPTP animals: significantly higher number of TH neurons
RN22 cells
  cell viability (MTT) under hydrogen peroxide stress: capable of maintaining cell viability
